The record followed here is patent publication US11976061B2, “Preparation of benzimidazolone derivatives as novel diacylglyceride O-acyltransferase 2 inhibitors” (Merck Sharp & Dohme LLC, priority 2020, dated 2024).

One experiment deals with T1, human DGAT2 (hDGAT2) (Homo sapiens, UniProt Q96PD7).
T1 construct: made in house; host or cells: Sf-9 insect cells (baculovirus), membrane fraction
T1 sequence (Q96PD7 1-388): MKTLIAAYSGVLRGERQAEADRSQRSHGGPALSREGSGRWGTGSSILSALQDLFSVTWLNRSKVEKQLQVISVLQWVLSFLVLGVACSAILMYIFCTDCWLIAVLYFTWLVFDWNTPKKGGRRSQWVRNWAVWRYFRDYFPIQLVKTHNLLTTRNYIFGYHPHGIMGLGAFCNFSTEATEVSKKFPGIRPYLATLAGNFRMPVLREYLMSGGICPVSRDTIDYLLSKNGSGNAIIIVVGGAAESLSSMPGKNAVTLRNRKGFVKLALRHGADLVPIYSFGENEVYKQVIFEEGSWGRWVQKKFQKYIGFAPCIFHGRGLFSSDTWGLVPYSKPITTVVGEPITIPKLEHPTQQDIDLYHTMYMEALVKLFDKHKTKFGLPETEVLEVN
As to the kind of experiment: DGAT2 Enzymatic Activity Assay. It counts as biochemical. The settings on record: membrane prep of Sf-9 cells expressing hDGAT2; 25 μM diolein, 5 μM 13C oleoyl-CoA; 13C18-triolein by LC/MS/MS; read-out: DGAT2 IC50. In outline: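 Membranes from Sf-9 cells expressing untagged human DGAT2 (8 ng/μL) incubated at rt in 100 mM Tris·Cl pH 7.0, 20 mM MgCl2, 5% ethanol with 25 μM diolein and 5 μM 13C oleoyl-CoA. 13C18-triolein product quantified by LC/MS/MS against 13C21-triolein internal standard; IC50 by 4-parameter fit.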
As to `CC1(NC(=O)c2ccc3c(c2)n(C2CCOCC2)c(=O)n3-c2cccc(OC(F)F)c2)CS(=O)(=O)C1` [Example 36, 1-(3-(difluoromethoxy)phenyl)-N-(3-methyl-1,1-dioxidothietan-3-yl)-2-oxo-3-(tetrahydro-2H-pyran-4-yl)-2,3-dihydro-1H-benzo[d]imidazole-5-carboxamide], the IC50 (as a rule, the concentration that inhibits the measured activity by half) came to 19.4 nM. Regarding `CC(C(F)F)n1c(=O)n(-c2cccc(OC(F)F)c2)c2ccc(C(=O)NC3(C)CCS(=O)(=O)CC3)cc21` (single isomer, unassigned) [Example 45a, 1-(3-(Difluoromethoxy)phenyl)-3-(1,1-difluoropropan-2-yl)-N-(4-methyl-1,1-dioxidotetrahydro-2H-thiopyran-4-yl)-2-oxo-2,3-dihydro-1H-benzo[d]imidazole-5-carboxamide], the IC50 came to 12 nM.

For the compound `CC(C)n1c(=O)n(-c2cccc(OC(F)(F)F)c2)c2ncc(C(=O)NC3(C)CCS(=O)(=O)CC3)cc21` [Example 92, 1-isopropyl-N-(4-methyl-1,1-dioxo-thian-4-yl)-2-oxo-3-[3-(trifluoromethoxy)phenyl]imidazo[4,5-b]pyridine-6-carboxamide], the IC50 came to 236 nM. On to `CC(C)n1c(=O)n(-c2cccc(OC(F)(F)C(F)F)c2)c2ncc(C(=O)NC3(C)CS(=O)(=O)C3)cc21` [Example 93, 1-isopropyl-N-(3-methyl-1,1-dioxo-thietan-3-yl)-2-oxo-3-[3-(1,1,2,2-tetrafluoroethoxy)phenyl]imidazo[4,5-b]pyridine-6-carboxamide], for which the IC50 turned out to be 24 nM. In the case of `CC(n1c(=O)n(-c2cc(OCC(F)F)ncc2F)c2ccc(C(=O)NC3(C)CCS(=O)(=O)CC3)cc21)C(C)(C)O` (single isomer, unassigned) [Example 72a, 1-(2-(2,2-difluoroethoxy)-5-fluoropyridin-4-yl)-3-(3-hydroxy-3-methylbutan-2-yl)-N-(4-methyl-1,1-dioxidotetrahydro-2H-thiopyran-4-yl)-2-oxo-2,3-dihydro-1H-benzo[d]imidazole-5-carboxamide], the IC50 was determined as 6.4 nM.

Regarding `CC(C)n1c(=O)n(-c2cc(OCC(F)F)ccn2)c2ccc(C(=O)NC3(C)CCS(=O)(=O)CC3)cc21` [Example 119, 1-(4-(2,2-difluoroethoxy)pyridin-2-yl)-3-isopropyl-N-(4-methyl-1,1-dioxidotetrahydro-2H-thiopyran-4-yl)-2-oxo-2,3-dihydro-1H-benzo[d]imidazole-5-carboxamide], the IC50 was 51 nM. For the compound `CC(n1c(=O)n(-c2cccc(OC(F)F)c2)c2ccc(C(=O)NC3(C)CCS(=O)(=O)CC3)cc21)C(C)(C)O` (single isomer, unassigned) [Example 67b, 1-(3-(difluoromethoxy)phenyl)-3-(3-hydroxy-3-methylbutan-2-yl)-N-(4-methyl-1,1-dioxidotetrahydro-2H-thiopyran-4-yl)-2-oxo-2,3-dihydro-1H-benzo[d]imidazole-5-carboxamide], the IC50 turned out to be 211 nM.

Regarding `CC(C)n1c(=O)n(-c2cccc(OC(F)F)c2)c2cc(F)c(C(=O)N[C@@]3(C)CCS(=O)(=O)C3)cc21` [Example 114, (S)-1-(3-(Difluoromethoxy)phenyl)-6-fluoro-3-isopropyl-N-(3-methyl-1,1-dioxidotetrahydrothiophen-3-yl)-2-oxo-2,3-dihydro-1H-benzo[d]imidazole-5-carboxamide], the IC50 amounted to 80 nM.

The experiment is the same for the next values; noted with them: membrane prep of Sf-9 cells expressing hDGAT2; 25 μM diolein, 5 μM 13C oleoyl-CoA; 13C18-triolein by LC/MS/MS; read-out: Human DGAT2 IC50.
Regarding `CC(C)n1c(=O)n(-c2cccc(OC(F)(F)F)c2)c2ccc(C(=O)NC3(C)CCS(=O)(=O)CC3)cc21` [Example 10, 3-isopropyl-N-(4-methyl-1,1-dioxo-thian-4-yl)-2-oxo-1-[3-(trifluoromethoxy)phenyl]benz-imidazole-5-carboxamide], the IC50 is 153 nM.

Take `CCOc1cc(-n2c(=O)n(C(C)C)c3cc(C(=O)NC4(C)CS(=O)(=O)C4)ccc32)c(F)cn1` [Example 16, 1-(2-ethoxy-5-fluoropyridin-4-yl)-3-isopropyl-N-(3-methyl-1,1-dioxidothietan-3-yl)-2-oxo-2,3-dihydro-1H-benzo[d]imidazole-5-carboxamide]: the IC50 stood at 32 nM.
